Measurements taken from ChEMBL document CHEMBL1143050, “QSAR study on permeability of hydrophobic compounds with artificial membranes” (Bioorg Med Chem, 2007).

Assays:
[1] = Permeability coefficient through artificial membrane in presence of unstirred water layer by PAMPA
[2] = Permeability coefficient through artificial membrane in presence of stirred water layer
[3] = Partition coefficient, log P of the compound; conditions: octanol/water
Caco-2 [4] = experiment: Permeability from basolateral to apical side of the Caco-2 cell membrane; format: ADME, cell-based; conditions: human
Caco-2 [5] = experiment: Permeability from apical to basolateral side of the Caco-2 cell membrane; format: ADME, cell-based; conditions: human

Papp ([2]; PAMPA) [×10⁻⁶ cm/s]	LogP app ([2]; PAMPA)	SMILES	LogP app [1]	LogP app ([2]; artificial membrane)	logP [3]	Papp [1] [×10⁻⁶ cm/s]	LogP app (Caco-2 [4])	LogP app (Caco-2 [5])
34.2	–	C[C@]12C[C@H](O)[C@H]3[C@@H](CCC4=CC(=O)CC[C@@]43C)[C@@H]1CC[C@@H]2C(=O)CO [CORTICOSTERONE]	-4.77	-4.47	–	–	–	–
11.3	–	C[C@@H]1C[C@H]2[C@@H]3CCC4=CC(=O)C=C[C@]4(C)[C@@]3(F)[C@@H](O)C[C@]2(C)[C@@]1(O)C(=O)CO [DEXAMETHASONE]	-5.37	-4.95	2.01	–	–	–
–	–	CCOC(=O)c1ccccc1C(=O)OCC [DIETHYL PHTHALATE]	-4.82	–	–	15.1	–	–
24.3	–	O=C(O)c1ccccc1Nc1ccccc1 [FENAMIC ACID]	-4.86	-4.61	–	13.8	–	–
–	–	CC(C)(C)N(NC(=O)c1ccc(Cl)cc1)C(=O)c1ccccc1 [HALOFENOZIDE]	-4.76	–	–	17.2	–	–
4.6	-5.34	Oc1ccc(O)cc1 [HYDROQUINONE]	-5.14	–	–	7.31	–	–
–	–	O=C(O)Cc1c[nH]c2ccccc12 [INDOLE-3-ACETIC ACID]	-6.4	–	–	–	–	–
–	–	O=C(O)CCc1c[nH]c2ccccc12 [INDOLYLPROPIONIC ACID]	-5.68	–	–	–	–	–
5.64	–	CC(CCc1ccccc1)NCC(O)c1ccc(O)c(C(N)=O)c1 (stereo not given) [LABETALOL]	-5.18	-5.25	–	–	–	–
–	–	COc1cccc(C(=O)NN(C(=O)c2cc(C)cc(C)c2)C(C)(C)C)c1C [METHOXYFENOZIDE]	-4.72	–	–	19.1	-4.38	-4.33
0.18	-6.74	CCn1cc(C(=O)O)c(=O)c2cc(F)c(N3CCNCC3)cc21 [NORFLOXACIN]	-6.71	–	-1.03	–	–	–
9.36	-5.03	C=CCOc1ccccc1OCC(O)CNC(C)C (stereo not given) [OXPRENOLOL]	-4.83	–	2.1	–	–	–
11.9	–	O=C1NC(=O)C(c2ccccc2)(c2ccccc2)N1 [PHENYTOIN]	-4.41	-4.93	2.26	–	–	–
0.82	–	CN1CCN(CC(=O)N2c3ccccc3C(=O)Nc3cccnc32)CC1 [PIRENZEPINE]	-6.05	-6.09	0.1	–	–	–
0.37	–	CC(=O)Nc1ccc(OCC(O)CNC(C)C)cc1 (stereo not given) [PRACTOLOL]	-5.98	-6.43	–	–	–	–
3	-5.52	CNC(=C[N+](=O)[O-])NCCSCc1ccc(CN(C)C)o1 [RANITIDINE]	-6.05	–	–	–	–	–
–	–	CC(C)(C)N(NC(=O)c1ccccc1)C(=O)c1ccccc1 [RH-5849]	-4.78	–	–	16.5	-4.42	-4.34
–	–	CCc1ccc(C(=O)NN(C(=O)c2cc(C)cc(C)c2)C(C)(C)C)cc1 [TEBUFENOZIDE]	-4.8	–	–	15.7	-4.39	-4.44
–	–	Cn1c(=O)c2[nH]cnc2n(C)c1=O.O [THEOPHYLLINE]	-5.31	–	–	–	–	–
–	–	NCCc1c[nH]c2ccccc12 [TRYPTAMINE]	-5.27	–	1.35	–	–	–
–	–	OCCc1c[nH]c2ccccc12 [TRYPTOPHOL]	-4.72	–	1.54	–	–	–

SMILES	Papp ([2]; PAMPA) [×10⁻⁶ cm/s]	LogP app ([2]; PAMPA)	LogP app [1]	LogP app ([2]; artificial membrane)	logP [3]	Papp [1] [×10⁻⁶ cm/s]	LogP app (Caco-2 [4])	LogP app (Caco-2 [5])
COC(=O)c1ccccc1C(=O)OC [DIMETHYL PHTHALATE]	158	–	-4.36	-3.8	1.56	43.3	–	–
CCC(C)c1ccccc1OC(=O)NC (stereo not given) [FENOBUCARB]	131	–	-4.91	-3.88	–	12.4	–	–
O=[N+]([O-])NC1=NCCN1Cc1ccc(Cl)nc1 [IMIDACLOPRID]	5.21	–	-5.34	-5.31	0.59	4.52	–	–
COc1nn(CSP(=S)(OC)OC)c(=O)s1 [METHIDATHION]	46.9	–	-4.97	-4.33	2.5	10.8	-4.42	–
CC(C)(C)NCC(O)COc1cccc2c1C[C@H](O)[C@H](O)C2 (stereo not given in full) [NADOLOL]	32.7	–	-6.15	-4.49	0.71	–	–	–
O=[N+]([O-])c1ccccc1O [NITROPHENOLATE]	216	–	-4.24	-3.36	–	57	–	–
Cc1ccccc1O [ORTHOCRESOL]	295	–	-4.28	-3.53	–	52.1	–	–
Oc1ccccc1 [PHENOL]	–	-3.83	-4.33	–	–	47	–	–
CC(C)NCC(O)COc1cccc2[nH]ccc12 (stereo not given) [PINDOLOL]	1.42	-5.85	-5.31	–	1.75	–	–	–
COP1(=S)OCc2ccccc2O1 (stereo not given) [SALITHION]	43.9	–	-5.03	-4.36	–	9.39	–	–
CCN(CC)C(=O)SCc1ccc(Cl)cc1 [THIOBENCARB]	92.9	–	-4.69	-4.03	–	20.6	–	–
